Results from US20260374739A1, “SMALL MOLECULAR WEIGHT CHEMICAL COMPOUND TO ANTAGONIZE EPH-EPHRIN TETRAMERIZATION AND INHIBIT BIDIRECTIONAL SIGNALING” (THE BOARD OF REGENTS OF THE UNIVERSITY OF TEXAS SYSTEM, priority 2022, published 2026).
Values joined by “and” are separate entries in the source; they are usually repeats but may differ in a detail not shown here. Equal values may be shown once. Read-outs that look alike come from different tables or passages of the source.

How the values were obtained:
EphB2-EphrinA5 = target: T1, EphB2-EphrinA5 (Mus musculus, UniProt P54763); assay: Octet, immobilized EphB2 binding to human EphrinA5; details: for IC50: mEphB2-hEphrinA5, immobilized mouse EphB2, 50 nM soluble human EphrinA5
T1 sequence (P54763 19-543 limits assumed): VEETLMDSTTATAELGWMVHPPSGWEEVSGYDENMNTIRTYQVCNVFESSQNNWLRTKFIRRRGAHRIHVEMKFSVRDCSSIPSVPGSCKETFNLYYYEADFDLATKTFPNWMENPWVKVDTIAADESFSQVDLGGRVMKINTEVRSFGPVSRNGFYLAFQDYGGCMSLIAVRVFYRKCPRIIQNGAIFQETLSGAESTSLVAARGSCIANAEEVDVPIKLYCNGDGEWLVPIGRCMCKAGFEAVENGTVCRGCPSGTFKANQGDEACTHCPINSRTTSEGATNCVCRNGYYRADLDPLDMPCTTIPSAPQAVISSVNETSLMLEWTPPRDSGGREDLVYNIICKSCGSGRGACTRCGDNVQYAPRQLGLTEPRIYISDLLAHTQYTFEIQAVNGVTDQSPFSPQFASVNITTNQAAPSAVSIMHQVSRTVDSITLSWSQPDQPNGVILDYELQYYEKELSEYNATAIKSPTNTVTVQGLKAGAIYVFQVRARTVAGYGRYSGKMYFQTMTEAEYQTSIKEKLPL
Experimental: The Octet system was used to probe the interactions of epitope-tagged human A class proteins, focusing on immobilized EphA3 binding to two of its cognate ligands, EphrinA1 and EphrinA5, as well as EphB2 binding to EphrinA5 (FIG. 27). […] Focusing on the dimerization-driven EphA3-EA5 interaction first (green sensorgram trace), which mimics what is disclosed above for EphB4-EB2, the initial binding of soluble EphrinA5 to the immobilized EphA3 is very fast and strong with a long and steep 84° slope of response that then quickly bends around 35 sec into the association step to form a more gradual tetramerization accumulation slope. […] However, again like the EphB4-EB2 interaction, once placed into dissociation, a significant fraction of the bound EA5 protein melts quickly and the off phase continues downward with a slow gradual decline in bound protein. Although the dissociation was for only 500 sec, the continued downward slope of the response indicates most of the bound EA5 protein would eventually melt off of the immobilized EphA3 protein. This is referred to as a classic dimerization-driven interaction, fast and strong initial binding in the association step but with most of the bound protein coming off in the dissociation due to lack of formation of stable tetramers. EphA3 interacts with EphrinA1 with totally different kinetics/dynamics (orange sensorgram trace). Here, the initial high 84° dimerization slope phase is extremely brief (5 sec) with the binding quickly snapping into a linear tetramerization accumulation phase with a 25° slope, and that once placed into dissociation step almost no bound protein melts, just the small amount that would represent dimer interactions falling off in the first few seconds after being placed into dissociation. […] EphB2 interacting with EA5 is similar to the EphA3-EA1 interaction, in that the association step is characterized by a very brief (5 sec) high 84° slope phase that quickly bends into a more gradual tetramer accumulation phase (blue sensorgram trace). […] The strong initial off phase of the EphB2-EA5 complexes in the dissociation represents both the melting of weak dimers and of the relatively weaker affinity tetramers formed by the cross A/B class EphB2-EA5 molecules. […]
The novel compound A20-I is a halogen replacement that changes the 7-bromine in A20 for iodine and had enhanced tetramerization inhibitor activity (FIGS. 38A-38D). This is evident when comparing results of A20-I and A20 salt compounds on the interaction of immobilized mouse EphB2 ectodomain binding to soluble mouse EphrinB2 ectodomain (FIG. 38A and FIG. 38B) or soluble human EphrinA5 (FIG. 38C). […] During these interactions of immobilized EphB ectodomains binding to soluble EphrinB2, the tetramer is much more surmountable by addition of an active compound than for the reverse experiment where EphrinB2 is immobilized and EphB2 is the soluble component in the assay (see FIG. 11, FIG. 17, and FIG. 25A-FIG. 25C). It is believed that the more resistant unsurmountable tetramer formed by immobilized EphrinB2 binding to soluble EphB ectodomains provides for the most rigorous test for determining IC50 values and thus utilizing this EphrinB2-EphB2 assay for analysis of all compounds, provide uniformity in observed results. The results described herein with A20-I and using the human EphrinB2-EphB2 interaction indicates replacements can be made in the 7-bromine in A20 that lead to enhanced tetramerization inhibitor activity.

EphB2 = EphB2 phosphorylation in mouse brain after dosing (immunoprecipitation/immunoblot); type: in vivo; details: 4 days
Experimental: Wild-type mice aged 10-12 weeks were IP injected every 12 hr for four days with vehicle (PBS) or 10 mg/kg of 2×·HCl salt forms of A20 (in PBS), A20-I (in PBS), or 3511-I, in 94% PBS/6% DMSO) for a total of 8 injections. Exactly 2 hr after final injection of A20 chemical, brains were dissected and frozen at −80 °C. Whole brain protein lysates were then prepared in a Dounce homogenizer using 5 ml PLC lysis buffer, and 1 ml of lysate was used for immunoprecipitation (IP) with 1 μg goat anti-EphB2 antibody, followed by immunoblot (IB) analysis with goat anti-EphB2, rabbit anti-phosphoEphB1/B2 (pEphB1/B2), and mouse anti-EphrinB2 antibodies using appropriate HRP conjugated secondary antibodies and chemiluminescent detection methods.
FIG. 79A depicts an illustrative immunoblot showing expression of EphB2, phospho-EphB1/B2, and EphrinB2 (co-IP) in the mouse brains. […] The level of co-immunoprecipitated EphrinB2 from the brains of A20 chemical injected animals was generally lower as indicated by fainter bands. FIGS. 79B and 79C show quantification of band intensities (number of photons detected) to obtain ratios of pEphB/EphB2 as a measure of EphB2 receptor activation levels (FIG. 79B) and ratios of EphrinB2/EphB2 as a measure of how much EphrinB2 is co-immunoprecipitated with the EphB2 receptor (FIG. 79C).
Whole brain protein lysates were prepared from wild-type mice either oral dosed (PO) or injected (IP) for 4 days with vehicle (PBS) or 20 mg/kg of 2×·HCl salt drugs of A20 or A20-I every 12 hr, with last ([…]) dose staggered such that brain dissections happened 2 hr after final drug dosing. EphB2 was immunoprecipitated from 1 ml of protein lysate using 1 μg of goat anti-EphB2 antibodies and then precipitated proteins immunoblotted with goat anti-EphB2, rabbit anti-pTyr1000, and mouse 4G10 antibodies using appropriate HRP conjugated secondary antibodies and chemiluminescent detection methods.
The pTry1000 and 4G10 immunoblots (FIG. 80B and FIG. 80C, respectively), which both recognize tyrosine phosphorylated proteins and are readouts for the activated EphB2 tyrosine kinase catalytic domain, both show strong tyrosine phosphorylation of the receptor in 3 of 4 vehicle (V) control lanes. […] The results shown here also highlight our finding that when EphB2 is tyrosine phosphorylated and catalytically activate in the intact brain, the protein migrates much slower in the SDS-PAGE gels with apparent migration in distinct bands-220-260 kDa (green arrows in FIGS. 80B and 80C), as opposed to the typical migration of unphosphorylated EphB2 protein at 125 kDa (black arrow in FIG. 80A).

[1] = association, absolute, read-out: Absolute Association IC50
[2] = association, relative, read-out: Relative Association IC50
[3] = dissociation, absolute, read-out: Absolute Dissociation IC50
[4] = dissociation, relative, read-out: Relative Dissociation IC50

SMILES | IC50 (EphB2-EphrinA5; [1]) | IC50 (EphB2-EphrinA5; [2]) | IC50 (EphB2-EphrinA5; [3]) | IC50 (EphB2-EphrinA5; [4]) | activated phosphorylated EphB2 in brain (EphB2; IP 10 mg/kg every 12 hr) | activated phosphorylated EphB2 in brain (EphB2; PO or IP 20 mg/kg every 12 hr) | formation of stable tetramers (EphB2-EphrinA5; 1 μM)
Oc1c(I)cc(CN2CCOCC2)c2cccnc12 [Compound 8, 4-((8-hydroxy-7-iodoquinolin-1-ium-5-yl)methyl)morpholin-4-ium chloride] | 0.42 µM and 1.59 µM | 0.22 µM and 0.83 µM | 0.09 µM | 0.08 µM | – | – | –
O=[N+]([O-])c1cc(CN2CCOCC2)c2cccnc2c1O [Compound 10, 4-((8-hydroxy-7-nitroquinolin-1-ium-5-yl)methyl)morpholin-4-ium chloride] | 4.24 µM | 2.9 µM | 100 µM | 100 µM | – | – | –
Oc1c(Br)cc(CN2CCOCC2)c2cccnc12 [Compound 6, 4-((7-bromo-8-hydroxyquinolin-1-ium-5-yl)methyl)morpholin-4-ium chloride] | 0.57 µM | – | < 1 µM | – | – | – | –
Oc1ccc(CN2CCN(Cc3ccc(C(F)(F)F)cc3)CC2)c2cccnc12 [Compound 48, 5-((4-(4-(trifluoromethyl)benzyl)piperazin-1-yl)methyl)quinolin-8-ol] | 8.24 µM | > 1 µM | 1 µM | 1 µM | – | – | –
Oc1c(Cl)cc(CN2CCOCC2)c2cccnc12 [Compound 4, 4-((7-chloro-8-hydroxyquinolin-1-ium-5-yl)methyl)morpholin-4-ium chloride] | < 1 µM | < 1 µM | < 1 µM | < 1 µM | – | – | –
Oc1c(I)cc(CN2CCOCC2)c2cccnc12 [Compound 7, 7-iodo-5-(morpholinomethyl)quinolin-8-ol] | – | – | – | – | generally lower level of activated phosphorylated EphB2 in the brain | lower levels of activated phosphorylated EphB2 in the brain | –
COc1ccccc1N1CCN(Cc2cc(I)c(O)c3ncccc23)CC1 [Compound 71, 7-iodo-5-((4-(2-methoxyphenyl)piperazin-1-yl)methyl)quinolin-8-ol] | – | – | – | – | generally lower level of activated phosphorylated EphB2 in the brain | – | –
O=S1(=O)CCN(Cc2ccc(O)c3ncccc23)CC1 [Compound 15, 4-((8-hydroxyquinolin-1-ium-5-yl)methyl)thiomorpholin-4-ium 1,1-dioxide chloride] | 7.04 µM | > 1 µM | 8.4 µM | > 1 µM | – | – | –
Oc1c(Br)cc(CN2CCOCC2)c2cccnc12 [Compound 5, 7-bromo-5-(morpholinomethyl)quinolin-8-ol] | – | – | – | – | generally lower level of activated phosphorylated EphB2 in the brain | lower levels of activated phosphorylated EphB2 in the brain | completely inhibited the formation of stable tetramers
